Tests used:
DPP-IV = target: T1, DPP-IV (Rattus norvegicus, UniProt P14740); test: DPP-IV activity, cleavage of luminescent Gly-Pro substrate in bronchial lung lavage fluid; format: biochemical; conditions: aprotinin 1, 2, 3, 4 and 5 TIU/ml
T1 construct: from tissue; host or cells: rat bronchial lung lavage fluid
Procedure: Aprotinin, a naturally occurring serine protease inhibitor, which is known in the art to inhibit protein degradation was added to the samples post collection at 1, 2, 3, 4 and 5 TIU/ml. DPP-IV activity was then measured by detecting the cleavage of a luminescent substrate containing the DPP-IV recognized Gly-Pro sequence. Bronchial lung lavage fluid was incubated with proluminescent substrate for 30 min and cleavage product was detected by luminescence.

β-cell mass = test: Effect on β-cell mass, cells treated at day 1, 3 and 5; format: cell-based; conditions: cells treated with GLP-1/FDKP versus untreated cells
[1] = tested on: Rat pancreatic epithelial (ARIP) cells; test: Apoptosis by FACS analysis using Annexin V staining; format: cell-based; conditions: 15 nM GLP-1, 1 μM staurosporine 4 hrs
Description: Annexin V staining is a useful tool in detecting apoptotic cells and is well known to those of skill in the art. Binding of Annexin V to the cell membrane, allows for the analysis of changes in […] (PS) asymmetry before morphological changes associated with apoptosis occurred and before membrane integrity is lost.

[2] = tested on: Rat pancreatic epithelial (ARIP) cells; test: Staurosporine-induced cell death in ARIP cells (Cell Titer-Glo); format: cell-based; conditions: GLP-1 up to 10 nM, 5 μM staurosporine […]
Procedure: Cell viability was evaluated using Cell Titer-Glo™ (Promega, Madison, Wis.).
The formulations were analyzed for their ability to inhibit staurosporine-induced cell death in ARIP cells.
All of the results shown are averages of triplicate runs.

T1 sequence (P14740 whole entry): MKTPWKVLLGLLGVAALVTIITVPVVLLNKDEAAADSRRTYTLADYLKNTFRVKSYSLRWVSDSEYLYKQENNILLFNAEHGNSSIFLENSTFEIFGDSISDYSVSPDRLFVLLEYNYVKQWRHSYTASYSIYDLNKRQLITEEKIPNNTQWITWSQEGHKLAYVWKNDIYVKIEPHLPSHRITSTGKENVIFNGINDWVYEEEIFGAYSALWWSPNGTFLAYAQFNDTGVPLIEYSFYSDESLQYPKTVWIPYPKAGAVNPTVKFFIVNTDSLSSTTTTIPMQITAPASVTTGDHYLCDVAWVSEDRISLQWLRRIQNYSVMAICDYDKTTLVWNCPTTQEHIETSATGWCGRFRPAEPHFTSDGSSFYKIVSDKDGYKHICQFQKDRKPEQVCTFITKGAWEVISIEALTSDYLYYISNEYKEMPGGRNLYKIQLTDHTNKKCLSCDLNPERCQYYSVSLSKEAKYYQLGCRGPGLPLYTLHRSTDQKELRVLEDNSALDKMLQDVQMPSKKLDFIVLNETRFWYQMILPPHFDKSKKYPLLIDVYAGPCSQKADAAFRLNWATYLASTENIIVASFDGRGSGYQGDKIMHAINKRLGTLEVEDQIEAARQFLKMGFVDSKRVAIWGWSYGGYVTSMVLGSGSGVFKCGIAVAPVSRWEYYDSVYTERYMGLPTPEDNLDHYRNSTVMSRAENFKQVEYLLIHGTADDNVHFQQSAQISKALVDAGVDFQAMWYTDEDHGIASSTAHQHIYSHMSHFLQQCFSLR

Substance | inhibition of DPP-IV activity (DPP-IV) | increase in β-cell mass (β-cell mass) | inhibition of staurosporine induced apoptosis [1] | percent of cell death [2]
aprotinin | increase in inhibition of DPP-IV activity | – | – | –
GLP-1 | – | up to 2 fold | about 40% | decrease in the percent of cell death

— US20080260838A1 (priority 2003, published 2008)
